Patent US11807852B2, “Compositions and methods for reactivating latent immunodeficiency virus” (The J. David Gladstone Institutes, a testamentary trust …, priority 2014, dated 2023)
Entries after “also recorded” stand apart in the source; their conditions may differ.

System: A2 J-Lat cells, A72 J-Lat cells, and primary CD4+ T cells
Assay: ApoTox-Glo Triplex Assay: viability, cytotoxicity, caspase-3/7
Assay type: cell-based
Settings: A2, A72 J-Lat cells and primary CD4+ T cells from 2 blood donors
Procedure: FIGS. 22A-D provide data showing the viability, cytotoxicity and apoptosis of cells treated with SMYD2 inhibitor X2. ApoTox-Glo™ Triplex Assays (Promega) were performed in AZ391-treated A2 J-Lat cells (A), A72 J-Lat cells (B), and primary CD4^+ T cells from 2 independent blood donors (C) and (D). […] All measurements were repeated at least three times and an average of one experiment of three technical replicates (±SD) is shown.

`N#Cc1cc(C(=O)NCCCN2CCCC2)cc(-c2ccccc2N2CCN(CCc3c[nH]c4ccccc34)CC2)c1` [AZ391] was tested, and the “viability, cytotoxicity and caspase-3/7 activity” value was “reduced cell viability and increased cytotoxicity and caspase-3/7 activity at concentrations above 5 μM; also recorded: did not reduce viability nor increase cytotoxicity and caspase-3/7 activity at concentrations lower than 5 μM”.
